Reference: patent EP0596725A2, “Drug resistance-conferring protein, antibodies reactive therewith and utilities thereof” (ELI LILLY AND COMPANY, priority 1992, dated 1994)
In brackets after ≈: the same amount, converted by molar mass.

Assays:
HL60/S cells = assay: IC50 of cells treated with drug (drug sensitivity); format: cell-based; conditions: Homo sapiens, HL-60, do not express P-glycoprotein, read-out: IC₅₀
HL60/Adr cells = assay: IC50 of cells treated with drug (drug sensitivity); format: cell-based; conditions: Homo sapiens; HL60/Adr cells (resistant to doxorubicin); express P190, no P-glycoprotein; read-out: IC₅₀

Row | Structure (SMILES) | IC50 (HL60/S cells) [µg/mL] | IC50 (HL60/Adr cells) [µg/mL]
1 | COc1cccc2c1C(=O)c1c(O)c3c(c(O)c1C2=O)C[C@@](O)(C(=O)CO)C[C@@H]3O[C@H]1C[C@H](N)[C@H](O)[C@H](C)O1 [Adriamycin, Doxorubicin] | 0.011 (≈ 0.0202 µM) | 2.2 (≈ 4.05 µM)
2 | COc1cc([C@@H]2c3cc4c(cc3[C@@H](O[C@@H]3O[C@@H]5CO[C@@H](C)O[C@H]5[C@H](O)[C@H]3O)[C@H]3COC(=O)[C@H]23)OCO4)cc(OC)c1O [Etoposide] | 0.39 (≈ 0.663 µM) | > 10
